In assay [1] the target is T1, GLP1R (Homo sapiens, UniProt P43220). The experiment in a line: cAMP assay in CHO cells stably expressing hGLP-1R. It counts as cell-based. Details: expressed in transfected cells; host or cells: CHO cells stably transfected. The conditions noted are these: CHO cells stably expressing hGLP-1R (Table 2), read-out: CHO cAMP stable EC50. The protocol:
GLP-1R-mediated agonist activity was determined with a cell-based functional assay utilizing an HTRF (Homogeneous Time-Resolved Fluorescence) cAMP detection kit (cAMP Dynamic 2 Assay Kit; CisBio cat #62AM4PEC) that measures cAMP levels in the cell. The method is a competitive immunoassay between native cAMP produced by the cells and exogenous cAMP labeled with the dye d2. The tracer binding is visualized by a mAb anti-cAMP labeled with Cryptate. The specific signal (i.e., energy transfer) is inversely proportional to the concentration of cAMP in either standard or experimental sample.
Following the 30 minute incubation, 5 μL of labeled d2 cAMP and 5 μL of anti-cAMP antibody (both diluted 1:20 in cell lysis buffer; as described in the manufacturer's assay protocol) were added to each well of the assay plate. […] Raw data were converted to nM cAMP by interpolation from a cAMP standard curve (as described in the manufacturer's assay protocol) and the percent effect was determined relative to a saturating concentration of the full agonist GLP-17-37 (10 nM) included on each plate. EC50 determinations were made from agonist dose-response curves analyzed with a curve fitting program using a 4-parameter logistic dose response equation. […]
On the technique in general: Cyclic AMP is a second messenger, typically raised through Gs and lowered through Gi signalling.
Target sequence in this assay (P43220 24-463): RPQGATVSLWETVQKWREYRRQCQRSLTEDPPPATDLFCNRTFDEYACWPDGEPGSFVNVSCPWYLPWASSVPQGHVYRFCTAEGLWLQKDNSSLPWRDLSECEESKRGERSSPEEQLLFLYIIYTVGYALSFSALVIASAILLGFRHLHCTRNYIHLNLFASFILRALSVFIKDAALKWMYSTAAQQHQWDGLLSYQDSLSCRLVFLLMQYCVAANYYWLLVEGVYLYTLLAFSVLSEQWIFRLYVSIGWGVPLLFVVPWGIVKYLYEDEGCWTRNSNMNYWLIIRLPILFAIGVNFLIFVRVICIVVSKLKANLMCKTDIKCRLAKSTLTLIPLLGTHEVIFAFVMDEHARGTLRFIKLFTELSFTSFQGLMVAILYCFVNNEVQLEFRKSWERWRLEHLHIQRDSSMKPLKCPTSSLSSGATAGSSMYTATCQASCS

The target of assay [2] is T1, GLP1R. Briefly: β-Arrestin-mediated GLP1R internalization assay (PathHunter U2OS cells). The assay is classed as cell-based. On the set-up: host or cells: PathHunter engineered U2OS cells. As to conditions: averaged Bmax where applicable, Percentage of Control GLP-1 (7-37), top 10 μM, 180 min. The essentials:
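PathHunter U2OS cells co-express untagged GLP1R, EA-tagged β-arrestin and an endosome-localized PK tag, so internalization gives β-galactosidase complementation. Agonist (top final concentration 10 μM) applied for 180 min at 37 °C, then chemiluminescence read after 60 min detection. EC50 from 4-parameter logistic fits.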
Target sequence in this assay (P43220 24-463): as above
Target sequence in this assay (P32121 whole entry partner): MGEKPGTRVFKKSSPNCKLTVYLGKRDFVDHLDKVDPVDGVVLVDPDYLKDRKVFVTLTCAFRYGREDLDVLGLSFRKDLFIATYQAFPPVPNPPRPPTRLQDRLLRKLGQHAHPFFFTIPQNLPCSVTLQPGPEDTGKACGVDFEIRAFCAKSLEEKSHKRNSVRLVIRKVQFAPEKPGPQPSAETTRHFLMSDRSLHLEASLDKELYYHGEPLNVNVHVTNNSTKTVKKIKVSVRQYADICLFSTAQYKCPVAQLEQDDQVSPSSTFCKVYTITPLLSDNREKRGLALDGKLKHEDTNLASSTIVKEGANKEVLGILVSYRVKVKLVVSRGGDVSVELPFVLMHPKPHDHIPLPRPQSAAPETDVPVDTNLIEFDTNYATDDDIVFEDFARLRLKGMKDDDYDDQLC

Assay [3] addresses T1, GLP1R. The experiment in a line: GLP1R cAMP assay (HTRF), HEK293/GLP-1R/CRE/Luc, Clone 4.
Target sequence in this assay (P43220 24-463): as the sequence (P43220 24-463) above
The target of assay [4] is T1, GLP1R. On the set-up: Emax: dose or concentration left out as unconfirmed. The conditions noted are these: CHO-K1, […], read-out: β-arrestin recruitment Bmax (%).
Target sequence in this assay (P43220 24-463): as above
Target sequence in this assay (P32121 whole entry partner): as the sequence (P32121 whole entry partner) above

On to `O=C(O)c1ccc2nc(Cc3cc(F)c(-c4cccc(OCc5ncc(Cl)cc5F)n4)cc3F)n(C[C@@H]3CCO3)c2n1` [Compound 276, (S)-2-(4-(6-((5-chloro-3-fluoropyridin-2-yl)methoxy)pyridin-2-yl)-2,5-difluorobenzyl)-3-(oxetan-2-ylmethyl)-3H-imidazo[4,5-b]pyridine-5-carboxylic acid], for which the EC50 on GLP1R [1] and on GLP1R [3] was < 15 nM each time. Also, the “β-arrestin internalization Bmax (POC)” value on GLP1R [2] was 26.7 POC. Also, at GLP1R [4], the Emax worked out at 35.6 ± 3.9%.

Source of the values: US10954221B2, “GLP-1R agonists and uses thereof” (QILU REGOR THERAPEUTICS INC., priority 2019, dated 2021).
